Measured values as given in patent publication US9957214B2, “Multifunctional radical quenchers” (ARIZONA BOARD OF REGENTS ON BEHALF OF ARIZONA STATE …, priority 2012, dated 2018).
Entries after “also recorded” stand apart in the source; their conditions may differ.

Assays:
Assay type in all cases: cell-based
FRDA lymphocytes [1] = experiment: Preservation of mitochondrial membrane potential (TMRM flow cytometry) in DEM-treated FRDA lymphocytes
Experimental: FIG. 3. Effect of nitrogen-containing 1,4-benzoquinone derivatives on mitochondrial membrane potential of cultured FRDA cells. Representative flow cytometric two dimensional color density dot plot analyses of mitochondrial membrane potential Δψm in FRDA lymphocytes stained with TMRM and analyzed using the FL2-H channel as described in Experimental Section. The cells were washed twice in phosphate buffered saline, and suspended in phosphate buffered saline containing 20 mM glucose. The percentage of cells with intact Δψm is indicated in the top right quadrant of captions. In each analysis, 10,000 events were recorded. Data are expressed as means±SEM of three independent experiments run in duplicate.
Mitochondrial membrane potential was measured using two different fluorescent dyes, TMRM and JC-1. Δψm was determined as previously described by staining FRDA lymphocyte cells with TMRM (Molecular Probes, Eugene, Oreg.) and analyzing fluorescence emission by flow cytometry in detection channel 2 (FL2-H) (Khdour et al. (2011) Pharmaceut. Res. 28, 2896-2909). Briefly, FRDA lymphocytes were pre-treated with or without the test compounds for 16 h. The cells were treated with 5 mM DEM for 140 min, collected by centrifugation at 300×g for 3 min and then washed twice with phosphate buffered saline. The cells were resuspended in PBS containing […] and incubated at 37° C. in the dark for 15 min with 250 nM TMRM. Cells were collected by centrifugation at 300×g for 3 min and were then washed with phosphate buffered saline. The samples were analyzed immediately by flow cytometry using a 488 nm excitation laser and the FL2-H channel. The results obtained were verified in three independent experiments. […] In each analysis, 10,000 events were recorded. […] The following day, cells were treated with tested compounds and incubated for an additional 12 h before treatment with 1 mM BSO. Δψm was assessed after 24 h using JC-1 Mitochondrial Membrane Potential Detection Kit (Biotium, Inc) following the manufacturer instruction. Glass cover slips were rinsed with phosphate-buffered saline and mounted onto slides, and images were recorded and analyzed with a Zeiss AxioCam MRm and AxioVision 3.1 software (Carl Zeiss Goettingen, Germany) on a Zeiss Axiovert 200 M inverted microscope, equipped with a 40× oil immersion objective.
The ability of the test compounds to preserve mitochondrial membrane potential under conditions of oxidative stress was studied. […] Changes in mitochondrial membrane potential (Δψm) were measured using two different fluorescent dyes, tetramethylrhodamine methyl ester (TMRM) and 5,5′,6,6′-tetrachloro-1,1′,3,3′-tetraethylbenzimidazolocarbocyanine iodide (JC-1). […] The fluorescence signal of TMRM can be directly co-related to Δψm across the inner mitochondrial membrane. […]

FRDA lymphocytes [2] = experiment: Suppression of ROS production (DCFH-DA flow cytometry) in DEM-treated FRDA lymphocytes; settings: FRDA lymphocytes or leukemic CEM cells depleted of glutathione with DEM; compared with natural product 8
Experimental: FIG. 2. Representative flow cytometric analysis of ROS production in FRDA lymphocytes. Following pretreatment with the indicated compounds (5 and 10 μM) for 16 h, the cells were treated with 5 mM diethyl maleate (DEM) for 80 min to deplete glutathione. The cells were washed in phosphate-buffered saline and suspended in phosphate-buffered saline containing 20 mM glucose. Cells were loaded with 10 μM dichlorodihydrofluorescein diacetate (DCFH-DA) for 20 min, and the green fluorescence (DCF) was measured by flow cytometry (C6 Accuri, BD Biosciences, San Jose, Calif.), using a 488 nm excitation laser and the FL1-H channel 530±15 nm emission filter. […] A total of 10,000 events was recorded for each sample and analyzed (C6 Accuri software, BD Biosciences). […] Data are expressed as the mean±SEM (n=3).
Intracellular ROS production was measured in FRDA lymphocyte cells (GM15850, Coriell Cell Repositories, Camden, N.J.) using the oxidant sensitive fluorescent probe 2,7-dichlorodihydrofluorescein diacetate (DCFH-DA) (Molecular Probes) as described previously (Khdour et al. (2011) Pharm. Res. 28, 2896-2909). […] The samples were analyzed immediately by flow cytometry (C6 Accuri, BD Biosciences, San Jose, Calif.), using a 488 nm excitation laser and the FL1-H channel 530±15 nm emission filter. The generation of ROS, mainly peroxides, was detected as a result of the oxidation of DCFH. […]

CEM leukemia cells = experiment: Suppression of ROS production (DCFH-DA flow cytometry) in DEM-treated CEM leukemia cells; settings: CEM leukemia cells pretreated with DEM, read-out: Scavenging activity (%), suppression of ROS production
Experimental: FIG. 1. Flow cytometric analysis of CEM leukemia lymphocytes (gray bars) and FRDA lymphocytes (black bars) stained with dichlorodihydrofluorescein diacetate (DCFH-DA) for 20 min, following pretreatment with the test compounds at 5 μM concentration for 16 h, and subsequent treatment with diethyl maleate (DEM) for 60 or 80 min to induce the production of ROS in CEM and FRDA lymphocytes, respectively. Data shown represent the mean±SEM of two different experiments run as duplicates.
Intracellular ROS production was measured in FRDA lymphocyte cells (GM15850, Coriell Cell Repositories, Camden, N.J.) using the oxidant sensitive fluorescent probe 2,7-dichlorodihydrofluorescein diacetate (DCFH-DA) (Molecular Probes) as described previously (Khdour et al. (2011) Pharm. Res. 28, 2896-2909). One mL of FRDA lymphocyte cells or leukemic CEM cells (5×10^5 cells) were plated in a 24-well plate, treated with the test compounds and incubated at 37° C. for 16 h in a humidified atmosphere containing 5% CO2 in air. Cells were treated with 5 mM diethyl maleate (DEM) for 80 min or 60 min respectively, collected by centrifugation at 300×g for 3 min and then washed with phosphate buffered saline (PBS) (Life Technologies). Cells were resuspended in PBS containing 20 mM glucose and incubated at 37° C. in the dark for […] with 10 μM DCFH-DA. Cells were collected by centrifugation at 300×g for 3 min and then washed with PBS. The samples were analyzed immediately by flow cytometry (C6 Accuri, BD Biosciences, San Jose, Calif.), using a 488 nm excitation laser and the FL1-H channel 530±15 nm emission filter. The generation of ROS, mainly peroxides, was detected as a result of the oxidation of DCFH. In each analysis, 10,000 events were recorded after cell debris was electronically gated out. Results obtained were verified by running duplicates and repeating experiments in three independent runs. Results were expressed as percentage of ROS scavenging activity.
The ability of the synthesized analogues to quench ROS and lipid peroxidation was evaluated in FRDA lymphocytes or leukemic CEM cells. These cells were placed under oxidative stress by depleting them of glutathione (GSH) using diethyl maleate (DEM). Depletion of glutathione by treatment FRDA lymphocytes or leukemic CEM cells with DEM has been used to induce oxidative stress in cellular systems by generation of ROS. Intracellular ROS production was measured using the oxidant sensitive fluorescent probe 2,7-dichlorodihydrofluorescein diacetate (DCFH-DA) (Molecular Probes).

SMILES | Preservation of mitochondrial membrane potential Δψm (in words) (FRDA lymphocytes [1]) | Suppression of ROS (in words) (FRDA lymphocytes [2]) | inhibition at 5 µM (CEM leukemia cells)
CCCCCCCCCCCCCC1=C(OC)C(=O)C=C(NCCCC(=O)OC(C)(C)C)C1=O [Compound 7, tert-butyl 4-(4-methoxy-3,6-dioxo-5-tridecylcyclohexa-1,4-dienylamino)butanoate] | preserved mitochondrial membrane potential; also recorded: able to prevent oxidative-stress induced collapse of Δψm | very effective in suppressing ROS | –
CCCCCCCCCCCCCC1=C(OC)C(=O)C=C(NCCCC(=O)OCCCCCC)C1=O [Compound 18, Hexyl 4-(4-methoxy-3,6-dioxo-5-tridecylcyclohexa-1,4-dienylamino)butanoate] | prevented the loss of Δψm | – | –
COC1=C2CCCCCCCCCCCCCCCNC(=CC1=O)C2=O [Compound 40] | prevented the loss of Δψm; also recorded: able to prevent oxidative-stress induced collapse of Δψm | very effective in suppressing ROS | –
CCCCCCCCCCCCCC1=C(OC)C(=O)C(C)=C(NCCCC(=O)OC(C)(C)C)C1=O [Compound 43, tert-butyl 4-(4-methoxy-2-methyl-3,6-dioxo-5-tridecylcyclohexa-1,4-dienylamino)butanoate] | – | – | 35 ± 6%
CCCCCCCCCCCCCC1=C(OC)C(=O)C(C)=C(NCCCC(=O)OCCCC)C1=O [Compound 46, Butyl 4-(4-methoxy-2-methyl-3,6-dioxo-5-tridecylcyclohexa-1,4-dienylamino)butanoate] | – | – | 50 ± 5%
CCCCCCCCCCCCCC1=C(OC)C(=O)C(C)=C(NCCCC(=O)OCCCCCC)C1=O [Compound 49, Hexyl 4-(4-methoxy-2-methyl-3,6-dioxo-5-tridecylcyclohexa-1,4-dienylamino)butanoate] | – | – | 16 ± 8%
CCCCCCCCCCCCCC1=C(NCCCC(=O)OCCCCCC)C(=O)C(C)=C(NCCCC(=O)OCCCCCC)C1=O [Compound 50, 2,5-bis(hexyl 4-aminobutanoate)-3-methyl-6-tridecylcyclohexa-2,5-diene-1,4-dione] | – | – | 14 ± 1%
